Results on 13 molecules are retold here after patent publication US7279550B2, “Irreversible cysteine protease inhibitors of legumain” (Probiodrug AG, priority 2001, dated 2007).

The target of experiment [1] is T1, legumain (Homo sapiens, UniProt Q99538).
T1 sequence (Q99538 18-323): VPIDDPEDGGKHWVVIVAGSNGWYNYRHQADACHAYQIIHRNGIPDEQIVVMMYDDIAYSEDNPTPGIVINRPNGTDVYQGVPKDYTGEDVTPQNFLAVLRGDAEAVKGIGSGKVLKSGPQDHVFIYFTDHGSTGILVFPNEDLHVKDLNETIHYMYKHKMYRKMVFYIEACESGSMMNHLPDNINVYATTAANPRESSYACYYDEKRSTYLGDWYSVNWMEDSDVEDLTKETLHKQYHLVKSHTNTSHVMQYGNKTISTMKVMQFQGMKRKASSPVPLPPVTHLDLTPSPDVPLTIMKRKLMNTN
The experiment is described as follows: Determination of Ki-values, legumain, substrate Z-Ala-Ala-Asn-AMC. In kind it is biochemical. The conditions noted are these: HEPES pH 7.6, 30° C.; substrate 0.05, 0.1, 0.2 and 0.4 mM. The procedure: 100 μl inhibitor stock solution were mixed with 100 μl buffer (HEPES pH 7.6) and 50 μl substrate Z-Ala-Ala-Asn-AMC and preincubated at 30° C. Reaction was started by addition of 20 μl enzyme solution. Formation of the product AMC was measured on a Kontron spectrofluorometer SFM25 (exitation 380; emission 460) and slopes were calculated. Legumain activity was measured at final substrate concentrations of 0.05, 0.1, 0.2, and 0.4 mM and further 7 inhibitor concentrations covering the IC50 concentration. Calculations were performed using the GraFit 4.0.13 (Erithacus) Software.

For experiment [2], the target named is T1, legumain. The experiment is described as follows: Fluorogenic continuous rate assay of legumain activity, substrate Z-Ala-Ala-Asn-AMC (kobs/[I]). The conditions noted are these: for kobs/[l] (second-order rate constant for the inactivation of legumain): substrate Z-Ala-Ala-Asn-AMC, 37° C. or 30° C., sodium citrate buffer, 1 mM dithiothreitol, 1 mM EDTA, approximate second-order inactivation constants. In kind it is biochemical. The procedure:
The legumain activity was determined in a fluorogenic continuos rate assay using the substrate Z-Ala-Ala-Asn-AMC on a Kontron spectrofluorometer SFM25 (exitation 380; emission 460) equipped with a four cell changer and controlled by an IBM-compatible personal computer. The obtained data were analyzed with the software FLUCOL^(38). The assay were done at 37° C. or 30° C., using a sodium citrate buffer (39.5 mM citric acid/121 mM Na2HPO4) containing 1 mM dithiothreitol and 1 mM EDTA. Additionally, 0.1% (w/v) Chaps or 0.015% (w/v) Brij 35 was added.
The inhibition progress curves were analyzed using non-linear curve fitting software Prism Graph Pad to compute the kobs values. Approximate second-order inactivation constants (kobs/[I]) were calculated for all compounds.

For orientation: Ki means the equilibrium dissociation constant of an inhibitor or competing ligand from its target. `C[C@H](NC(=O)OCc1ccccc1)C(=O)N[C@@H](C)C(=O)N[C@@H](CC(N)=O)C(=O)NOC(=O)c1ccccc1` [Compound 20, [Cbz-L-Ala-L-Ala-L-Asn]-O-benzoylhydroxamate] had an inhibitory constant (Ki) on legumain [1] of 3.1 µM. For the molecule `C[C@H](NC(=O)OCc1ccccc1)C(=O)N[C@@H](C)C(=O)NN(CC(N)=O)C(=O)COC(=O)c1ccccc1` [Compound 24, 2-[2-(Cbz-L-Ala-L-Ala)-1-(benzoyloxyacetyl)hydrazino]acetamide], on legumain [2], the “inhibition of legumain (in words)” value is recorded as “only moderate inhibition” and the “kobs/[l] (second-order rate constant for the inactivation of legumain)” value (“kobs/[l]” below) turned out to be 13 M⁻¹ s⁻¹. Turning to “Methyl [(S)-(E)-3-[Cbz-L-Ala-L-Ala]amino-5-amino-5-oxo-1-petene]-sulfonate [Compound 12]”, the “kobs/[l]” value on legumain [2] came out at 30 M⁻¹ s⁻¹. Consider `CC(NC(=O)OCc1ccccc1)C(=O)NC(C)C(=O)NN(CC(N)=O)C(=O)CCl` [Compound 18, 2-[2-(Cbz-L-Ala-L-Ala)-1-(chloroacetyl)hydrazino]acetamide], for which the “second-order rate constant for the inactivation of legumain, fold higher than that of the Michael acceptor inhibitors” value at legumain [2] (compared with the Michael acceptor inhibitors) is recorded as “approximately 200 fold”. In addition, the “kobs/[l]” value on legumain [2] is 139088 M⁻¹ s⁻¹.

Take `C[C@H](NC(=O)OCc1ccccc1)C(=O)N[C@@H](C)C(=O)NN(CC(N)=O)C(=O)CBr` [Compound 22, 2-[2-(Cbz-L-Ala-L-Ala)-1-(bromoacetyl)hydrazino]acetamide]: at legumain [2], the “inhibition of legumain (in words)” value is on record as “potent inhibitor” and the “kobs/[l]” value is 84000 M⁻¹ s⁻¹.

As for `COC(=O)/C(C)=C/[C@H](CC(N)=O)NC(=O)C(C)NC(=O)C(C)NC(=O)OCc1ccccc1` (stereo partly drawn) [Compound 9, Methyl (S)-(E)-4-[Cbz-L-Ala-L-Ala]amino-6-amino-2-methyl-6-oxo-2-hexenoate], at legumain [2], the “kobs/[l]” value was 2 M⁻¹ s⁻¹. Still for that read-out and setting: to “Diethyl [(S)-(E)-3-[Cbz-L-Ala-L-Ala]amino-5-amino-5-oxo-1-petenylphosphate [Compound 13]” belongs less than 1 M⁻¹ s⁻¹; to `CCOC(=O)/C(C)=C/[C@H](CC(N)=O)NC(=O)C(C)NC(=O)C(C)NC(=O)OCc1ccccc1` (stereo partly drawn) [Compound 10, Ethyl (S)-(E)-4-[Cbz-L-Ala-L-Ala]amino-6-amino-2-methyl-6-oxo-2-hexenoate], 2 M⁻¹ s⁻¹; to `CC(NC(=O)OCc1ccccc1)C(=O)NC(C)C(=O)N[C@H](/C=C/C(=O)O)CC(N)=O` (stereo partly drawn) [Compound 8, (S)-(E)-4-[Cbz-L-Ala-L-Ala]amino-6-amino-6-oxo-2-hexenoic acid], 4 M⁻¹ s⁻¹.

As for `CCOC(=O)/C=C/[C@H](CC(N)=O)NC(=O)[C@H](C)NC(=O)[C@H](C)NC(=O)OCc1ccccc1` [Compound 6, Ethyl (S)-(E)-4-[Cbz-L-Ala-L-Ala]amino-6-amino-6-oxo-2-hexenoate], at legumain [2], the “kobs/[l]” value was 456 M⁻¹ s⁻¹. The same measure, in the same setting: to `COC(=O)/C=C/[C@H](CC(N)=O)NC(=O)[C@H](C)NC(=O)[C@H](C)NC(=O)OCc1ccccc1` [Compound 5, Methyl (S)-(E)-4-[Cbz-L-Ala-L-Ala]amino-6-amino-6-oxo-2-hexenoate] belongs 543 M⁻¹ s⁻¹. On the same count and under the same terms, to `C/C(=C\[C@H](CC(N)=O)NC(=O)[C@H](C)NC(=O)[C@H](C)NC(=O)OCc1ccccc1)C(=O)O` [Compound 11, (S)-(E)-4-[Cbz-L-Ala-L-Ala]amino-6-amino-2-methyl-6-oxo-2-hexenoic acid] belongs less than 1 M⁻¹ s⁻¹; to `C=CCOC(=O)/C=C/[C@H](CC(N)=O)NC(=O)[C@H](C)NC(=O)[C@H](C)NC(=O)OCc1ccccc1` [Compound 7, Allyl (S)-(E)-4-[Cbz-L-Ala-L-Ala]amino-6-amino-6-oxo-2-hexenoate], 776 M⁻¹ s⁻¹.
